Assay results: patent publication US10201530B2, “Treatment of BRCA1-defective cancer or resistant cancers” (City of Hope, priority 2014, dated 2019)
Like-named read-outs stand apart in the source and are kept apart here.

Legend:
OV90 = assay: Cytotoxicity (MTT/DIMSCAN), OV90 cells; type: cell-based, human; conditions: read-out: IC50, mean ± SEM
Procedure: (§1) All cell lines were acquired from the American Type Culture Collection (Manassas, Va., USA). Cells were maintained in RPMI 1640 medium (Mediatech) with 10% fetal bovine serum, 2 mM glutamine, and 100 U of penicillin and 100 μg of streptomycin per ml of medium (Sigma) at 37° C. in 5% CO2. To isolate HCC1437+BRCA1 cells, parental HCC1937 cells were transfected with pcDNA3.1 plasmid expressing full-length BRCA1 cDNA. Stable transfectant clones were selected and used for drug sensitivity assays. For stable transfection, cells at 30-40% confluence were incubated overnight with […] of plasmid DNA, using FUGENE® 6 transfectin reagent (Roche Molecular Biochemical, Monza, Italy) according to the manufacturer's instructions. Cells were then selected in puromycin (1 μg/ml) (Invitrogen life Technologies, La Jolla, Calif., USA.) After 20 to 30 days, viable puromycin-resistant colonies from HCC1937 transfections were expanded and screened. The clones that stably expressed […] and retained growth potential were assayed for BRCA1 expression by Western blot analysis. By Western blot analysis, we evaluated the restoration of BRCA1 expression in the puromycin-resistant cDNA/transfectant cells.
(§2) The MTT cytotoxicity assay was performed by incubating with MTT and monitoring the MTT formazan formed by viable cells with a microplate reader at a wavelength of 560 nm; the survival, ratio was determined using the formula: (Atest−Ablank)/(Acontrol−Ablank)×100%. The cytotoxicity was determined in 96-well plates using the semiautomatic fluorescence-based Digital Imaging Microscopy System (DIMSCAN). DIMSCAN uses digital imaging microscopy to quantify viable cells, which selectively accumulate FDA (fluorescein diacetate; Alfa Aesar, Ward Hill, Mass.). DIMSCAN is capable of measuring cytotoxicity over a 4 log dynamic range by quantifying total fluorescence per well (which is proportional to the number of viable cells) after elimination of the background fluorescence by digital thresholding and eosin Y (Mallinckrodt Baker, Center Valley, Pa.) quenching. Cells were seeded into 96-well plates in 100 μL of complete medium at 2,000 to 5,000 cells per well depending on cell line growth rate. After overnight incubation, test compound was added to each well at various concentrations in 50 μL of culture medium. […] Total fluorescence per well was then measured using DIMSCAN, and the results were expressed as the ratio of the fluorescence in treated wells to the fluorescence in untreated wells (survival fraction).

TOV112D = assay: Cytotoxicity, TOV112D cells; type: cell-based, human; conditions: read-out: IC50, mean ± SEM
Procedure: as §1
(§3) The MTT cytotoxicity assay was performed by incubating with MTT and monitoring the MTT formazan formed by viable cells with a microplate reader at a wavelength of 560 nm; the survival, ratio was determined using the formula: (Atest−Ablank)/(Acontrol−Ablank)×100%. The cytotoxicity was determined in 96-well plates using the semiautomatic fluorescence-based Digital Imaging Microscopy System (DIMSCAN). DIMSCAN uses digital imaging microscopy to quantify viable cells, which selectively accumulate FDA (fluorescein diacetate; Alfa Aesar, Ward Hill, Mass.). DIMSCAN is capable of measuring cytotoxicity over a 4 log dynamic range by quantifying total fluorescence per well (which is proportional to the number of viable cells) after elimination of the background fluorescence by digital thresholding and eosin Y (Mallinckrodt Baker, Center Valley, Pa.) quenching. Cells were seeded into 96-well plates in 100 μL of complete medium at 2,000 to 5,000 cells per well depending on cell line growth rate. After overnight incubation, test compound was added to each well at various concentrations in 50 μL of culture medium. After incubation with the drugs for 96 hours at 37° C., FDA (final concentration: […]) and eosin Y [final concentration: 0.1% (w/v)] were added to each well and the cells were incubated for an additional 20 minutes at 37° C. Total fluorescence per well was then measured using DIMSCAN, and the results were expressed as the ratio of the fluorescence in treated wells to the fluorescence in untreated wells (survival fraction).

OVCAR-3 = assay: Cytotoxicity, OVCAR-3 cells; type: cell-based, human; conditions: read-out: IC50, mean ± SEM
Procedure: as §1, §3

OVCAR-4 = assay: Cytotoxicity, OVCAR-4 cells; type: cell-based, human; conditions: read-out: IC50, mean ± SEM
Procedure: as §1, §3

UWB1.289 = assay: Cytotoxicity, UWB1.289 cells; type: cell-based, human; conditions: read-out: IC50, mean ± SEM
Procedure: as §1, §2

UWB1.289 + BRCA1 = assay: Cytotoxicity, UWB1.289+BRCA1 cells; type: cell-based, human; conditions: read-out: IC50, mean ± SEM
Procedure: as §1, §2

KB-Gem = assay: Cytotoxicity, KB-Gem cells; type: cell-based, human; conditions: gemcitabine-resistant, read-out: IC50, mean ± SEM
Procedure: as §1, §3

KB-7D = assay: Cytotoxicity, KB-7D cells; type: cell-based, human; conditions: cisplatin-resistant, read-out: IC50, mean ± SEM
Procedure: as §1, §3

A2780 = assay: Cytotoxicity, A2780 cells; type: cell-based, human; conditions: A2780, cisplatin-sensitive ovarian cells, read-out: IC50, mean ± SEM
Procedure: as §1, §3

A2780-DDDP = assay: Cytotoxicity, A2780-DDDP cells; type: cell-based, human; conditions: cisplatin-resistant ovarian cells, read-out: IC50, mean ± SEM
Procedure: as §1, §3

MDA-MB-231 = assay: Cytotoxicity, MDA-MB-231 cells; type: cell-based, human
Procedure: as §1, §3

HCC1937 = assay: Cytotoxicity, HCC1937 cells; type: cell-based, human
Procedure: as §1
(§4) The MTT cytotoxicity assay was performed by incubating with MTT and monitoring the MTT formazan formed by viable cells with a microplate reader at a wavelength of 560 nm; the survival, ratio was determined using the formula: (Atest−Ablank)/(Acontrol−Ablank)×100%. The cytotoxicity was determined in 96-well plates using the semiautomatic fluorescence-based Digital Imaging Microscopy System (DIMSCAN). DIMSCAN uses digital imaging microscopy to quantify viable cells, which selectively accumulate FDA (fluorescein diacetate; Alfa Aesar, Ward Hill, Mass.). DIMSCAN is capable of measuring cytotoxicity over a 4 log dynamic range by quantifying total fluorescence per well (which is proportional to the number of viable cells) after elimination of the background fluorescence by digital thresholding and eosin Y (Mallinckrodt Baker, Center Valley, Pa.) quenching. […]

HCC1937 + BRCA1 = assay: Cytotoxicity, HCC1937+BRCA1 cells; type: cell-based, human
Procedure: as §1, §4

MCF-7 = assay: Cytotoxicity, MCF-7 cells; type: cell-based, human
Procedure: as §1, §4

SKBR3 = assay: Cytotoxicity, SKBR3 cells; type: cell-based, human
Procedure: as §1, §4

zebrafish embryos = assay: Zebrafish genotoxicity assay; type: in vivo, Danio rerio; conditions: wild-type zebrafish embryos, HU 0-50 mM
Procedure: Zebrafish (Danio rerio) were obtained from zebrafish Core facility of Taipei Medical University and maintained at 28° C. on a 14 h light/10 h dark cycle. Embryos were incubated at 28° C. and different developmental stages were determined as described (25). Wild-type embryos were treated with different concentrations of HU (0, 5, […], 20, 50 mM) or COH29 (0, 10, 20, 50, 100 μM) at 20 hpf to evaluate the mutagenic effect. Fifteen embryos were treated per well condition. […] Embryos were observed using an Olympus IX70-FLA inverted fluorescence microscope. Images were taken using SPOT digital camera system (Diagnostic Instruments, Sterling Heights, Mich., USA) and assembled with ImageJ software (26).

PARP1 protein = PARP1 protein level by Western blot; type: cell-based, human; conditions: HCC1937 cells irrespective of BRCA1 status, 4 h treatment
Procedure: For subcellular fractionation, cells were trypsinized and washed with cold PBS solution twice. […] Following centrifugation at 1,000 g for 5 min, the supernatant was collected (i.e., cytoplasmic fraction) and pellets were washed with the same buffer twice. The washed samples were extracted for 40 min on ice with fractionation buffer containing 0.5% NP-40 for nuclear fraction. All the samples were sonicated and clarified by centrifugation at 16,000 g for 15 min. Protein concentrations of all fractions were determined with Bio-Rad Protein Assay (Bio-Rad Laboratories, Hercules, Calif.). Immunoblotting was performed as described previously (21,22). Briefly, equal amounts of boiled protein samples were subjected to SDS-polyacrylamide gel electrophoresis (PAGE) and transferred onto nitrocellulose membranes (Bio-Rad Laboratories). Membranes were blocked for 1 hour in 3% BSA in Tris buffered saline containing 0.05% Tween 20 (TBST) and incubated for 1 hour with primary antibody (1:500 or 1:1000) diluted in TBST containing 1% BSA. After two washes with TBST, membranes were incubated for 1 hour with horseradish peroxidase-conjugated secondary Abs (1:3000 dilution) at room temperature. The immunoblots were visualized on film with the West-Q chemi-luminescence kit (GenDEPOT, Barker, Tex.).

[1] = Homo sapiens, UWB1289, UWB1.289
[2] = Homo sapiens, UWB1289, UWB1.289 + BRCA1
[3] = Homo sapiens, MDA-MB-231, TNBC, read-out: IC50, mean ± SEM

N.N.[Cl][Pt][Cl] [Cisplatin]
IC50 (OV90; OV90, wild-type BRCA1 ovarian cancer cells, COH29 72 h): 1.57 ± 0.29 µM | IC50 (TOV112D): 1.32 ± 0.2 µM | IC50 (OVCAR-3): 1.64 ± 0.04 µM | IC50 (OVCAR-4): 2.25 ± 0.25 µM | IC50 (UWB1.289; UWB1.289, BRCA1-defective ovarian cancer cells, COH29 72 h): 1.43 ± 0.87 µM | IC50 (UWB1.289 + BRCA1; UWB1.289 + BRCA1 (WT), COH29 72 h): 7.4 ± 2.02 µM | IC50 (KB-Gem): 0.38 ± 0.03 µM | IC50 (KB-7D): 7.5 ± 0.3 µM | IC50 (A2780): 0.69 µM | IC50 (A2780-DDDP): 5.02 ± 1.18 µM | IC50 (MDA-MB-231; MDA-MB-231, TNBC, read-out: IC50, mean ± SEM): 3.74 ± 0.21 µM | IC50 (HCC1937; HCC1937, triple negative, BRCA1 mutant, COH29 72 h): 2.46 ± 0.11 µM | IC50 (HCC1937 + BRCA1; HCC1937 + BRCA1, triple negative, COH29 72 h): 2.93 ± 0.55 µM | IC50 (MCF-7; MCF-7, ER+ PR(+)): 12.1 ± 1.02 µM | IC50 (SKBR3; SKBR3, ER− PR(−) HER2+): 0.99 ± 0.24 µM

NC(=O)NO [HU, hydroxyurea]
developmental defects (zebrafish embryos; COH29 0-100 μM): caused defects in eyes and heart by 4 dpf | number of mutant embryos (zebrafish embryos): dose-dependent increase in the number of mutant embryos

CC(=O)O[C@H]1C(=O)[C@@]2(C)[C@H]([C@H](OC(=O)c3ccccc3)[C@]3(O)C[C@H](OC(=O)[C@H](O)[C@@H](NC(=O)c4ccccc4)c4ccccc4)C(C)=C1C3(C)C)[C@]1(OC(C)=O)CO[C@@H]1C[C@@H]2O [Paclitaxel]
IC50 (OV90; Homo sapiens, OV-90, OV90): 0.00909 ± 0.00041 µM | IC50 (TOV112D; Homo sapiens): 0.00645 ± 0.00105 µM | IC50 (OVCAR-3; Homo sapiens): 0.00289 ± 7e-05 µM | IC50 (OVCAR-4; Homo sapiens): 0.00555 ± 5e-05 µM | IC50 (UWB1.289; [1]): 0.0139 ± 0.0007 µM | IC50 (UWB1.289 + BRCA1; [2]): 0.013 ± 0.00162 µM | IC50 (KB-Gem; Homo sapiens): 0.00195 ± 0.00015 µM | IC50 (KB-7D; Homo sapiens, KB7D): 0.00517 ± 0.00017 µM | IC50 (A2780; Homo sapiens): 0.0036 ± 0.00167 µM | IC50 (A2780-DDDP; Homo sapiens): 0.0114 ± 0.00149 µM | IC50 (MDA-MB-231; [3]): 0.00201 ± 0.00057 µM | IC50 (MDA-MB-231; Homo sapiens, MDA-MB-231, Table 3 paclitaxel column, read-out: IC50): 0.00201 ± 0.00057 µM | IC50 (HCC1937; Homo sapiens, HCC1937, Table 3 paclitaxel column): 0.00404 ± 0.00044 µM | IC50 (HCC1937 + BRCA1; Homo sapiens, HCC1937 + BRCA1, Table 3 paclitaxel column): 0.0054 ± 7e-05 µM | IC50 (MCF-7; Homo sapiens, MCF7, MCF-7, Table 3 paclitaxel column): 0.00636 ± 0.00111 µM | IC50 (SKBR3; Homo sapiens, SK-BR-3, SKBR3, Table 3 paclitaxel column): 0.00337 ± 8e-05 µM

Nc1ccn([C@@H]2O[C@H](CO)[C@@H](O)C2(F)F)c(=O)n1 [Gemcitabine]
IC50 (OV90; Homo sapiens, OV-90, OV90): 0.0783 ± 0.0116 µM | IC50 (TOV112D; Homo sapiens): 0.0284 ± 0.00418 µM | IC50 (OVCAR-3; Homo sapiens): 0.118 µM | IC50 (OVCAR-4; Homo sapiens): 0.0551 ± 0.00355 µM | IC50 (UWB1.289; [1]): 0.05648 ± 0.00032 µM | IC50 (UWB1.289 + BRCA1; [2]): 0.0422 ± 0.00062 µM | IC50 (KB-Gem; Homo sapiens): 0.06 ± 0.01 µM | IC50 (KB-7D; Homo sapiens, KB7D): 0.00069 ± 2e-05 µM | IC50 (A2780; Homo sapiens): 0.0255 ± 0.00166 µM | IC50 (A2780-DDDP; Homo sapiens): 0.0363 ± 0.00079 µM | IC50 (MDA-MB-231; [3]): 0.017 ± 0.00133 µM

C[C@]1(c2nc3c(C(N)=O)cccc3[nH]2)CCCN1 [ABT-888]
effect on PARP1 protein level (PARP1 protein): significant reduction of PARP1
